Drawing on the supplement of paper PMC10307832, this text covers relative viability for three cell lines.

What all share (test): relative viability (nuclei count vs DMSO), 5 days (fraction); higher = more cells survive
Compound in the experiment “Sulindac + Foretinib”: CC1=C(CC(=O)O)c2cc(F)ccc2/C1=C\c1ccc([S+](C)[O-])cc1 [Sulindac] + COc1cc2c(Oc3ccc(NC(=O)C4(C(=O)Nc5ccc(F)cc5)CC4)cc3F)ccnc2cc1OCCCN1CCOCC1 [Foretinib] (partner 0.25 µM)
A digest of the protocol: (§1)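 Lung cancer cell lines, seeded in 1536-well plates, were treated the following day by pin tool with a single drug or with five library-drug doses (not always all listed) in √10 steps on top of a fixed anchor-drug dose. Cells were fixed and nuclei stained in one step after 5 days, and nuclei were counted. Relative viability is the nuclei count for treated wells divided by that for vehicle wells, reported as medians of duplicate plates.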

Compound in experiment [1]: CN[C@@H]1C[C@H]2O[C@@](C)([C@@H]1OC)n1c3ccccc3c3c4c(c5c6ccccc6n2c5c31)C(=O)NC4 [Staurosporine] + Cc1cc(Nc2cc(N3CCN(C)CC3)nc(Sc3ccc(NC(=O)C4CC4)cc3)n2)n[nH]1 [Tozasertib] (partner 0.1 µM)
A digest of the protocol: as §1

Compound in the experiment “Sulindac + Bortezomib”: CC1=C(CC(=O)O)c2cc(F)ccc2/C1=C\c1ccc([S+](C)[O-])cc1 [Sulindac] + CC(C)C[C@H](NC(=O)[C@H](Cc1ccccc1)NC(=O)c1cnccn1)B(O)O [Bortezomib] (partner 0.002 µM)
A digest of the protocol:
as §1

Compound in experiment [2]: O=c1[nH]cc(F)c(=O)[nH]1 [5-Fluorouracil] + O=C(CCCCCCC(=O)Nc1ccccc1)NO [Vorinostat] (partner 1 µM)
A digest of the protocol:
as §1

As for RERF-LC-KJ, the relative viability with Sulindac + Foretinib (first compound 0.08 µM) was 1.03; with Sulindac + Foretinib (first compound 0.253 µM) it was 0.934; in the experiment with Sulindac + Foretinib (first compound 0.8 µM), 0.65; with Sulindac + Foretinib (first compound 2.53 µM), 0.856; in the experiment with Sulindac + Foretinib (first compound 8 µM), 0.927; in experiment [1] (first compound 0.005 µM), 0.414. Besides, the relative viability in experiment [1] (first compound 0.01581 µM) was determined as 0.433; in experiment [1] (first compound 0.05 µM) it was 0.219; in experiment [1] (first compound 0.1581 µM), 0.178; in experiment [1] (first compound 0.5 µM), 0.176; in the experiment with Sulindac + Bortezomib (first compound 0.08 µM), 1.23; in the experiment with Sulindac + Bortezomib (first compound 0.253 µM), 1.08. Further, the relative viability is 0.92 with Sulindac + Bortezomib (first compound 0.8 µM); 1.07 in the experiment with Sulindac + Bortezomib (first compound 2.53 µM); 1.25 with Sulindac + Bortezomib (first compound 8 µM); 0.741 in experiment [2] (first compound 0.02 µM); 0.736 in experiment [2] (first compound 0.2 µM); 0.725 in experiment [2] (first compound 0.6325 µM). Moreover, the relative viability in experiment [2] (first compound 2 µM) turned out to be 0.56.

SK-LU-1: the relative viability with Sulindac + Foretinib (first compound 0.08 µM) is 0.981; in the experiment with Sulindac + Foretinib (first compound 0.253 µM) it was 0.977; with Sulindac + Foretinib (first compound 0.8 µM), 0.993; with Sulindac + Foretinib (first compound 2.53 µM) it was 0.751; with Sulindac + Foretinib (first compound 8 µM), 0.955; in experiment [1] (first compound 0.005 µM), 0.168. In addition, the relative viability is 0.115 in experiment [1] (first compound 0.01581 µM); 0.133 in experiment [1] (first compound 0.1581 µM); 0.0818 in experiment [1] (first compound 0.5 µM); 1.7 with Sulindac + Bortezomib (first compound 0.08 µM); 1.07 with Sulindac + Bortezomib (first compound 0.253 µM); 0.906 in the experiment with Sulindac + Bortezomib (first compound 2.53 µM). The relative viability was 1.8 with Sulindac + Bortezomib (first compound 8 µM); 0.705 in experiment [2] (first compound 0.02 µM); 0.885 in experiment [2] (first compound 0.2 µM); 0.744 in experiment [2] (first compound 0.6325 µM); 0.681 in experiment [2] (first compound 2 µM).

For SW 1573, the relative viability came to 1.19 in the experiment with Sulindac + Foretinib (first compound 0.08 µM); 1.17 in the experiment with Sulindac + Foretinib (first compound 0.253 µM); 0.776 with Sulindac + Foretinib (first compound 0.8 µM); 0.788 in the experiment with Sulindac + Foretinib (first compound 2.53 µM); 0.955 in the experiment with Sulindac + Foretinib (first compound 8 µM); 0.153 in experiment [1] (first compound 0.005 µM). The relative viability amounted to 0.186 in experiment [1] (first compound 0.01581 µM); 0.119 in experiment [1] (first compound 0.05 µM); 0.0873 in experiment [1] (first compound 0.1581 µM); 0.069 in experiment [1] (first compound 0.5 µM); 1 with Sulindac + Bortezomib (first compound 0.253 µM); 1.19 with Sulindac + Bortezomib (first compound 2.53 µM). Besides, the relative viability with Sulindac + Bortezomib (first compound 8 µM) came to 1.13; in experiment [2] (first compound 0.02 µM) it was 0.873; in experiment [2] (first compound 0.2 µM) it was 0.843; in experiment [2] (first compound 0.6325 µM), 0.778; in experiment [2] (first compound 2 µM) it was 0.466.
